In publication PMC5471252, “Anti-leukemia activity of a Hsp70 inhibitor and its hybrid molecules” (Scientific Reports, 2017):

Columns and labels:
HL-60 cells = experiment: MTT assay, cell viability of HL-60 cells; type: cell-based; settings: Homo sapiens, 48 h, mean ± s.d., n = 3, read-out: IC50 values of compounds for leukemia cells
[1] = system: AIF translocation in HL-60 and K562 cells; experiment: AIF translocation to the nucleus (western blot, immunocytochemistry); type: cell-based, human; settings: 24 h; 2 μM for Az-O3-GD
Source text: Apoptosis-inducing factor (AIF) is known to be translocated from the cytosol to the nucleus during caspase-independent apoptosis (Supplementary Fig. S8b)[39]. In addition, it is also known that Hsp70 interacts with AIF directly and this interacting event results in blocking translocation of AIF to the nucleus and, in turn, prevents caspase-independent apoptosis. Because of these phenomena, we tested if Az has an influence on AIF-mediated caspase-independent apoptosis. To probe this issue, HL-60 and K562 cells were exposed to Az and the levels of AIF in the cytosolic and nuclear fractions were then determined. AIF translocation to the nucleus was not observed in Az-treated cells, based on western blot analysis (Fig. 4d). Additional evidence to support this conclusion was obtained from immunocytochemical analysis of leukemia cells treated with Az (Fig. 4d).
(§1) Western blot analysis. […] peroxidase-conjugated goat anti-rabbit IgG (1:2000, Santa Cruz Bio Technology) and goat anti-mouse IgG (1:2000, Santa Cruz Bio Technology) were used as the secondary antibodies. The blots were developed by using a West-ZOL® plus Western Blot Detection System (Intron Biotechnology Inc., South Korea). Western blot signals were analyzed by using a G:BOX Chemi Fluorescent & Chemiluminescent Imaging System.
Immunocytochemistry. […] Cell images were analyzed using the ZEN 2011 software.

K562 cells = experiment: MTT assay, cell viability of K562 cells; type: cell-based; settings: Homo sapiens, 48 h, mean ± s.d., n = 3, read-out: IC50 values of compounds for leukemia cells
Jurkat cells = experiment: MTT assay, cell viability of Jurkat cells; type: cell-based; settings: Homo sapiens, 48 h, mean ± s.d., n = 3, read-out: IC50 values of compounds for leukemia cells
[2] = system: human leukemia cells (HL-60, KG-1, THP-1, U937, Jurkat and K562 cells); experiment: MTT assay, all tested leukemia cells (summary statements); settings: Homo sapiens, 48 h, read-out: IC50 values, cytotoxic activities toward all the tested leukemia
Description: To assess anti-leukemia activity of Az, several human leukemia cells (HL-60 cells, acute myeloid leukemia; Jurkat cells, acute T-lymphocytic leukemia; KG-1 cells, acute myeloid leukemia; U937 cells, acute myeloid leukemia; THP-1 cells, acute monocytic leukemia; K562 cells, chronic myeloid leukemia) were incubated with Az for 48 h. […] An MTT assay was then performed to measure cell viabilities.
(§2) Cells were exposed to each compound (a HCl salt form) at various concentrations for indicated time periods (24 or 48 h) in culture media. MTT assays were conducted according to known procedures. The absorbance at 570 nm was determined by employing a microplate reader (TECAN, Infinite® 200 PRO).

[3] = target: T1, interaction of Hsp70 with Apaf-1 in HL-60 and K562 cells (Homo sapiens, UniProt P0DMV8); experiment: Immunoprecipitation of Hsp70/Apaf-1 complex with Hsp70 antibody; type: cell-based; settings: cells treated 24 h, co-immunoprecipitation
T1 construct: endogenous in cells; host or cells: HL-60 and K562 cells
T1 sequence (P0DMV8 whole entry): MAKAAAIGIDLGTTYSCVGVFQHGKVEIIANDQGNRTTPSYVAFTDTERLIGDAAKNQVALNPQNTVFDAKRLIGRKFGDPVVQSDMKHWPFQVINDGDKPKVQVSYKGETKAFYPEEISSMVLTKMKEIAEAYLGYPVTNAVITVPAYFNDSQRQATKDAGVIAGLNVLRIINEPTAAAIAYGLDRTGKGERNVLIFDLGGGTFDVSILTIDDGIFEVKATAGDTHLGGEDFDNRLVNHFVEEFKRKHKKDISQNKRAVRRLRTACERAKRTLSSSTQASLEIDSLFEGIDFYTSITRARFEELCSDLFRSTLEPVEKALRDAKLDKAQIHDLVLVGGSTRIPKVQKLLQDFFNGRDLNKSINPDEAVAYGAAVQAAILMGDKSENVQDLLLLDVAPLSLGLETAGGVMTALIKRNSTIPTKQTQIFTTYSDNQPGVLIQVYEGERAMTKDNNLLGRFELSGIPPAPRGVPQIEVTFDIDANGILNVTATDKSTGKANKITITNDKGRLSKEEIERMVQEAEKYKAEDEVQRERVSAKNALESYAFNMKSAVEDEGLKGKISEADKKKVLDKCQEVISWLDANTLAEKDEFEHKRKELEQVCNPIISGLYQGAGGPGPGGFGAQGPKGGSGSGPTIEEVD
Description: With this information in mind, we tested if Az enhances the cytochrome c release from mitochondria into the cytosol in leukemia cells. The levels of cytochrome c in cytosolic and mitochondrial fractions of HL-60 and K562 cells after treatment with Az were determined by using western blot analysis. […] We next determined if the binding of Hsp70 to Apaf-1 is suppressed by Az during apoptosis. For this purpose, HL-60 and K562 cells were exposed to Az, and a complex of Hsp70 and Apaf-1 was then immunoprecipitated with Hsp70 antibody.
Supplementary Figure S9. Az blocks association of Hsp70 with Apaf-1. (a) HL-60 and K562 cells were treated with Az for 24 h, and the amount of Hsp70, Hsc70 and Apaf-1 was measured by western blot. […] (b) HL-60 and K562 cells were treated with Az for 24 h. Immunoprecipitation was performed with a Hsp70 antibody, and the amount of co-precipitated Apaf-1 was determined by western blot.

KG-1 cells = experiment: MTT assay, cell viability of KG-1 cells; type: cell-based; settings: Homo sapiens, 48 h, mean ± s.d., n = 3, read-out: IC50 values of compounds for leukemia cells
[4] = system: Ba/F3 cells producing imatinib-resistant mutant Bcr-Abl (T315I); experiment: MTT assay, Ba/F3 cells producing mutant Bcr-Abl (T315I); type: cell-based, murine; settings: Mus musculus, BaF3, 24 h, read-out: IC50 values, cytotoxicity towards cells expressing mutant Abl
Description: Next, the cytotoxic effects of Az on wild-type and mutant Bcr-Abl expressing cells were evaluated.
as §2
Cells were treated with various concentrations of each compound for 24 h. Cell death was measured by using an MTT assay (mean ± s.d., n = 3).

[5] = system: Hsp70 level in HL-60 and K562 cells; experiment: Western blot of Hsp70 and Hsp90 levels; type: cell-based, human; settings: cells treated 24 h
Description: Because Az-O3-GD promotes caspase activation in leukemia cells, it was anticipated that procaspase-9, procaspase-3 and PARP would be cleaved in treated cells. To test this possibility, HL-60 and K562 cells were exposed to Az-O3-GD, along with Az and GD as controls and western blot analysis was then carried out. […] Although Az-O3-GD upregulates Hsp70, the presence of the Hsp70 inhibitor in this hybrid causes its cytotoxicity against leukemia cells to be higher than that of GD. Finally, we examined the effect of Az-O3-GD on AIF-mediated caspase-independent apoptosis. To this end, HL-60 and K562 cells were incubated with Az-O3-GD for 24 h.
as §1

HL-60 and K562 cells = experiment: Flow cytometry, JC-1 mitochondrial membrane potential; type: cell-based, human; settings: 24 h; 10 µM Az or 4 µM Az-O3-GD
Description: To determine whether Az promotes leukemia cell death via apoptosis, acute leukemia HL-60 and chronic leukemia K562 cells were independently incubated with Az. The treated cells were then exposed to a mixed solution of fluorescein-annexin V and propidium iodide (PI) and flow cytometry analysis was conducted. […] The size of the treated cells was also assessed by using flow cytometry. […] We also investigated if the mitochondrial membrane potential in cells treated with Az is disrupted. To test this possibility, HL-60 and K562 cells were exposed to Az and subsequently stained with a membrane potential sensitive JC-1 probe. […] This serves as another evidence for apoptosis induced by Az.
JC-1 staining: HL-60 and K562 cells were treated with each compound and then with 2.5 μg/mL JC-1 (Anaspec) in PBS for 15 min. Flow cytometry was conducted with a BD FACSVerse™ instrument (the red fluorescence signal: λex = 550 nm, λem = 600 nm; the green fluorescence signal: λex = 485 nm, λem = 535 nm) and the data were analyzed using a FlowJo™ software.

THP-1 cells = experiment: MTT assay, cell viability of THP-1 cells; type: cell-based; settings: Homo sapiens, 48 h, mean ± s.d., n = 3, read-out: IC50 values of compounds for leukemia cells

**Q.** Which results are given for COc1ccc(-c2nc(-c3cc(C(F)(F)F)cc(C(F)(F)F)c3)n(Cc3ccc(C(=O)NCCOCCOCCN)cc3)c2-c2ccc(OC)cc2)cc1 [Az, apoptozole]?
**A.** IC50 (HL-60 cells): 2.8 ± 0.87 µM; AIF translocation to the nucleus [1]: not observed; IC50 (K562 cells): 3.6 ± 0.52 µM; IC50 (Jurkat cells): 3.1 ± 0.61 µM; IC50 [2]: 2 to 5 µM; interaction of Hsp70 with Apaf-1 [3]: inhibits the interaction of Hsp70 with Apaf-1; IC50 (KG-1 cells): 3.3 ± 0.71 µM; IC50 [4]: 2.2 µM; translational level of Hsp70 [5]: does not affect the translational levels of Hsp70 and Hsp90; mitochondrial membrane potential, JC-1 red fluorescence (HL-60 and K562 cells): reduction of the mitochondrial membrane potential; IC50 (THP-1 cells): 3.7 ± 0.73 µM
